Earlier results on one compound are cited in patent publication US20100009005A1, “Novel acetysalicylic acid formulations” (Flamel Technologies ,S.A., priority 2005, published 2010).

In the case of `CS(=O)(=O)c1ccc(C2=C(c3ccccc3)C(=O)OC2)cc1` [rofecoxib], for the setting “after oral administration”, the “time of peak plasma concentrations” value was 2 to 3 h. The half life entry (in vivo) is “about 17 hours”.
